These results are taken from US20050085463A1 (priority 2003, published 2005).

Usually Ki stands for the dissociation constant of the complex between target and ligand, obtained from inhibition or displacement. The term inhibition denotes the percentage by which the read-out fell short of the control. Low values mean a weak effect, high ones a strong effect.

Data set [1] deals with T1, M2 muscarinic receptor (Homo sapiens, UniProt P08172).
T1 sequence (P08172 1-466): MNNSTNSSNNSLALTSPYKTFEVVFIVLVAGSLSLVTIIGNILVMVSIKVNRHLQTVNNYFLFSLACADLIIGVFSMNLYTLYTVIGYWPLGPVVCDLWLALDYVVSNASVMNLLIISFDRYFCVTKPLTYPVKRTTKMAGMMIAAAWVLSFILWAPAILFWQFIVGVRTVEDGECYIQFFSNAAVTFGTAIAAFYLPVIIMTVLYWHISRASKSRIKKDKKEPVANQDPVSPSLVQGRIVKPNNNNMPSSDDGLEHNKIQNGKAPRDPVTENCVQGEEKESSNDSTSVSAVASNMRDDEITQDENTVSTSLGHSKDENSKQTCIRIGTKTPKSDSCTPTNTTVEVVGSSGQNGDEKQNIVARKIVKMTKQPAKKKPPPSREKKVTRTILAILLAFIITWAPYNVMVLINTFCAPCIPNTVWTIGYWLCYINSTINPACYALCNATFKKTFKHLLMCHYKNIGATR
Put plainly: R-SAT agonist assay.

The next data set deals with T2, M5 muscarinic receptor (Homo sapiens, UniProt P08912).
T2 sequence (P08912 1-532): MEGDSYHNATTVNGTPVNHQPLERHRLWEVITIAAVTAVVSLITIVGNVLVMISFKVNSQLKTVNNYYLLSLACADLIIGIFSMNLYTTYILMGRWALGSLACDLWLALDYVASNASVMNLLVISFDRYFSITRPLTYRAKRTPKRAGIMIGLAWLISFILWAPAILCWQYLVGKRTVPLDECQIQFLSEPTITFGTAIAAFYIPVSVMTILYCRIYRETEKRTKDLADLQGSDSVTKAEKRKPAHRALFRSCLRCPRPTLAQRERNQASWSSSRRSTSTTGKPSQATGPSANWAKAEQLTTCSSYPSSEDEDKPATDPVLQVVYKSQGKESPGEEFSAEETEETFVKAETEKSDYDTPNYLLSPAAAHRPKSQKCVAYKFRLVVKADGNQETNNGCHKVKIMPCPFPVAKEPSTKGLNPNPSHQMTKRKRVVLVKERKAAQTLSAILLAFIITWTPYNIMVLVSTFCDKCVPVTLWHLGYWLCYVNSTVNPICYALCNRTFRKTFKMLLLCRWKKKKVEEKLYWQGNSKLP
Kind of data set: R-SAT agonist assay. More on the design: expressed in transfected cells; host or cells: NIH/3T3. In kind it is cell-based.

For data set [2] the following is noted: dog; oral clozapine (Mosier et al. 2003); cited from earlier work.
Data set [3] relates to apomorphine-induced climbing. Kind of data set: Reversal of apomorphine-induced climbing. Conditions: s.c.
The target in the next data set is 5HT7 receptors (Homo sapiens, UniProt P34969). Put plainly: Ligand binding screen at 10 μM.
Another data set has as its target T3, M4 muscarinic receptor (Homo sapiens, UniProt P08173).
T3 sequence (P08173 1-479): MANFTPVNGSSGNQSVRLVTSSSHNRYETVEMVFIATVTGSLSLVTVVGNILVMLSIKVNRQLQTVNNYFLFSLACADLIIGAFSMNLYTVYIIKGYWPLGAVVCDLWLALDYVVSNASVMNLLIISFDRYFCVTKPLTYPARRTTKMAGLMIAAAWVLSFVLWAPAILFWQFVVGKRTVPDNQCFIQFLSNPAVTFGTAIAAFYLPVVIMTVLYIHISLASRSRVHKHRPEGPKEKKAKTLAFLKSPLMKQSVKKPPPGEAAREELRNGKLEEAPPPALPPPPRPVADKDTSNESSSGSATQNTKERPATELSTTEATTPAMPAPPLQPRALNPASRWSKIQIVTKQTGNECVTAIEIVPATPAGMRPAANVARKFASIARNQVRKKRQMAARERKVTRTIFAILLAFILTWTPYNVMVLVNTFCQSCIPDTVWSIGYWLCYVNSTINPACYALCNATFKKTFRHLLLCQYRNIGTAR
Kind of data set: R-SAT agonist assay. The following applies: relative to carbachol, No response/nr = no agonist activity up to 10 μM. Also on record: expressed in transfected cells; host or cells: NIH/3T3. In kind it is cell-based.

The target in the next data set is T4, M1 muscarinic receptor (Homo sapiens, UniProt P11229).
T4 sequence (P11229 1-460): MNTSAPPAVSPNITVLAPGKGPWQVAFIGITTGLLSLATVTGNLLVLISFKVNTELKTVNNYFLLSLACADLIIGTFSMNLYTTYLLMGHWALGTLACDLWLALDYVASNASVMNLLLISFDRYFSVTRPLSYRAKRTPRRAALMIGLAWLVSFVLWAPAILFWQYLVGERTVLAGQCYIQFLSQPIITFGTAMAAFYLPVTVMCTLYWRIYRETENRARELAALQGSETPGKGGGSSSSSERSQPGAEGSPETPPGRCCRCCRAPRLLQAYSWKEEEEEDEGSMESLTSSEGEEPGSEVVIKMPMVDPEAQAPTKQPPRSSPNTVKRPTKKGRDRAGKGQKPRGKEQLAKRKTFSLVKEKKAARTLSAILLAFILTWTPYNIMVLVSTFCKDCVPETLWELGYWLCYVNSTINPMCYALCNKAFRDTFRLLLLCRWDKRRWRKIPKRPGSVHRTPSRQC
Kind of data set: cell-based.

In data set [4] the target is T1, M2 muscarinic receptor. Put plainly: R-SAT competitive antagonist assay. In kind it is cell-based. More on the design: expressed in transfected cells; host or cells: NIH/3T3. Conditions: nr = no significant antagonist or inverse agonist activity up to 1 μM, nr* = nr but significant agonist activity.
A further data set deals with 5-HT6A receptor (Homo sapiens, UniProt P50406). Kind of data set: R-SAT inverse agonist assay.
For data set [5], the target named is α2A (Alpha 2A) adrenergic receptor (Homo sapiens, UniProt P08913). Kind of data set: R-SAT competitive antagonist assay. Conditions: nr = no significant antagonist or inverse agonist activity up to 1 μM, nr* = nr but significant agonist activity.
The target in another data set is M2 receptors (Homo sapiens, UniProt P08172). Kind of data set: Ligand binding screen at 10 μM.
The mark [6] stands for this setting: R-SAT, relative to carbachol, No response/nr = no agonist activity up to 10 μM.

The structures appear in SMILES notation. Values joined by “and” are separate entries in the source; they are usually repeats but may differ in a detail not shown here. Identical values can stand only once.

α2A (Alpha 2A) adrenergic receptor, sequence (P08913 whole entry): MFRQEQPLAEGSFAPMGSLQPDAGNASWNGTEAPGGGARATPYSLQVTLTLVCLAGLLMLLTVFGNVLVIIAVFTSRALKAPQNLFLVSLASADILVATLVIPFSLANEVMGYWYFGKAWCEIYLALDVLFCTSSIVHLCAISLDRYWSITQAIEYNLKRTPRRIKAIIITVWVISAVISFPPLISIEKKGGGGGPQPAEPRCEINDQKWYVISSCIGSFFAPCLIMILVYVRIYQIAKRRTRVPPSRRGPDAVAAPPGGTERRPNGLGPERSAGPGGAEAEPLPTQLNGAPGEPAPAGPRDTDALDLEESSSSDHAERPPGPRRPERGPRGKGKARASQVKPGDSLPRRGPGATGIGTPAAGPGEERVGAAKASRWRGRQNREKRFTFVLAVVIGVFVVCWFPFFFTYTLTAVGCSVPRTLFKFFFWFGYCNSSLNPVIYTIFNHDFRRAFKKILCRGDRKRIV
5-HT6A receptor, sequence (P50406 whole entry): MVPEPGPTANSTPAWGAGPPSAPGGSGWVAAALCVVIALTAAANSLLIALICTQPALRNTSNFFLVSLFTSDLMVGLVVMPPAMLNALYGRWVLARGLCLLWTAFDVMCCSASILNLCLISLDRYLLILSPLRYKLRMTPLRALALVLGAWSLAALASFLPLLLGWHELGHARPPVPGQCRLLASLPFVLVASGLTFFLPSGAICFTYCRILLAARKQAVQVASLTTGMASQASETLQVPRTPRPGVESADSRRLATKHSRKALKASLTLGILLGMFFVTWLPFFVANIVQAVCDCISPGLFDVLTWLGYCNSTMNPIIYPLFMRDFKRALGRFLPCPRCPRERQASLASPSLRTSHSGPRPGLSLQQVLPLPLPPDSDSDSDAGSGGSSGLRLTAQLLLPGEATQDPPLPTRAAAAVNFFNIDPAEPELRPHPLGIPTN
5HT7 receptors, sequence (P34969 whole entry): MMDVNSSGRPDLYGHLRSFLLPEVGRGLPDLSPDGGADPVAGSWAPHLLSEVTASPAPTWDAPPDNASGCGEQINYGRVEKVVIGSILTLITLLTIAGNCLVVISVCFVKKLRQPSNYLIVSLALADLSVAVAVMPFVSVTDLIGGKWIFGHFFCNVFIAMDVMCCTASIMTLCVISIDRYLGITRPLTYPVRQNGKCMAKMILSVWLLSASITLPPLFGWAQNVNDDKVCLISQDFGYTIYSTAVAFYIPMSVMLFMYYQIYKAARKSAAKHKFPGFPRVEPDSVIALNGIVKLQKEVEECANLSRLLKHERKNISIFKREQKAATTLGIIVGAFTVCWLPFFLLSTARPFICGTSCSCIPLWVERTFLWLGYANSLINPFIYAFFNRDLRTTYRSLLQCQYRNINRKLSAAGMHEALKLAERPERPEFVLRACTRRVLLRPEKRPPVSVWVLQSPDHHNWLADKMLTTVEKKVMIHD

For the compound `Clc1ccc2c(c1)N=C(N1CCNCC1)c1ccccc1N2` [NDMC, 8-chloro-11-(1-piperazinyl)-5H-dibenzo [b,e][1,4] diazepine], the EC50 was 339 nM and 316 nM at M2 muscarinic receptor [1] (M2 pEC50, R-SAT agonist); 23.4 nM and 25.1 nM at M5 muscarinic receptor (R-SAT agonist, read-out: M5 pEC50 (converted)); 200 nM on M1 muscarinic receptor (M1 pEC50, PI hydrolysis, agonist); 93 nM at M1 muscarinic receptor (potency, M1 agonist, PI hydrolysis, n=3); 126 nM at 5-HT6A receptor. In addition, the “M2 Efficacy” value at M2 muscarinic receptor [1] (setting [6]) is on record as 106 ± 19%. The “M5 Efficacy” value on M5 muscarinic receptor (setting [6]) is recorded as 48 ± 6%. In addition, on M5 muscarinic receptor (functional pharmacological screen, read-out: Ki, partial agonist of M5), the Ki was found to be 25 nM. Moreover, the “Cmax of desmethylclozapine as share of that of clozapine” value in [2] is given as “approximately 20%”. In addition, the “minimal effective dose, reduction of apomorphine-induced climbing” value in [3] is reported as > 100 mg/kg. The inhibition at 10 µM at 5HT7 receptors and at M2 receptors was ≥ 90% each time. For the same compound, on M4 muscarinic receptor, the “M4 Efficacy” value was determined as 87 ± 8%. Also, the Emax at M1 muscarinic receptor (CHO, read-out: M1 % Efficacy, PI hydrolysis, relative to carbachol) came to 56%. Also, at M2 muscarinic receptor [4], the “pKi M2, competitive antagonist” value was “nr*”. The “pEC50 5HT6A, inverse agonist” value on 5-HT6A receptor (R-SAT, nr = no significant antagonist or inverse agonist activity up to 1 μM) was 6.9 ± 0.1. In data set [5], the “pKi α2A, competitive antagonist” value is “nr and nr^”.
